Primed or numbered codes have the meaning given here. Where no end group is shown, it is not given here. FITC′ = not defined here
How the values were obtained:
[1] = test system: OE33 esophageal adenocarcinoma cells; test: Competitive inhibition assay (peptide vs SNFYMPL-phage); type: cell-based, human; details: peptide at 100, 200, and 400 μM
Description: Competitive inhibition assay. The OE33 and Q-hTERT cells were detached and blocked. […] pfu of SNFYMPL-phage was incubated with OE33 cells (1×10^7) or Q-hTERT cells (1×10^7), ‘SNFYMPL-GGGSK’ peptide or scrambled peptide ‘NLMPYFS-GGGSK’ were added into cell-phage mixture at the concentration of 100, 200, and 400 μm for competition with the phage. After washing three times with PBS/0.1% (v/v) Tween-20 and one time with 0.2 M glycine, pH 2.2/0.1% BSA for two minutes, the bound phage were recovered and titered. Every sample was carried out in triplicate. The amount of bound phage in every sample was […].

[2] = test system: OE33 (esophageal adenocarcinoma) cells; test: Fluorescence images for peptide binding on culture cells; type: cell-based, human; details: for intensity associated with binding to the cell surface: OE33
Description: (§1) Fluoresence images for peptide binding on culture cells. The OE33 and QhTERT cells were grown in chamber slides to 80% confluence. Blocking of non-specific binding to these cells was performed by adding 200 μl of 1% BSA diluted in PBS for 30 min. The cells were then incubated with […] of the candidate FITC-labeled peptide in serum free media for 10 minutes at room temperature. The cells were washed 3 times using 200 μL PBS/0.5% TWEEN 20 in room temperature. The cells were fixed in ice cold 4% praformaldehyde for 5 minutes. The cells were then stained with Vectashield mounting medium containing DAPI. Fluorescence images were collected with a confocal microscope (Nikon 1000) at 200×. The fluorescence intensity from the cells in 3 images was averaged to assess for peptide binding using NIH Image J software.

[3] = test system: Q-hTERT (intestinal metaplasia) cells; test: as above; type: cell-based
Description: as §1

[4] = test system: Human endoscopic mucosal resection (EMR) specimens of esophageal mucosa; test: Fluorescence-labeled polypeptide binding to endoscopic mucosal resection (EMR) specimens; details: for mean fluorescence intensity value: 100 μm, 5 minutes
Description: Human endoscopic mucosal resection (EMR) specimens were freshly taken from regions of suspected dysplastic mucosa. Each specimen was incubated with the FITC-labeled polypeptide of SEQ ID NO: 1 at a concentration of 100 μm for 5 minutes. Ink was used to mark the 12 o'clock position for orientation. White light stereo microscope (Olympus SZX16) images were obtained with an overlying 20×20 mm grid to register the histology. Fluorescence images were obtained at an exposure of 12 ms. The tissue was then fixed in formalin. An expert GI pathologist sectioned the specimens along cross-sections at ˜2 mm intervals longitudinally and interpreted the histopathology while blinded to the fluorescence images. The mean intensity of the fluorescence images in each 1 mm interval was measured using the NIH Image J processing software and compared with histology.

[5] = test system: SEG1 (adenocarcinoma) cells; test: Target peptide binding to cell surface targets; type: cell-based; details: 100 μM
Description: Identification of plasma membrane targets on adenocarcinoma cells that affinity bind to “ASYNYDA” (SEQ ID NO: 5). The carboxyl end of the target peptide was linked to affinity column beads using EDC chemistry. Seg-1 cells were grown to confluency, lysed by sonification, and fractionated by centrifugation. The resulting membrane fractions were applied to the target peptide labeled column and specific binding proteins were eluted. These proteins were separated and collected in fractions by a reverse phase column using a Beckman PF 2D liquid chromatography apparatus. The protein fractions were spotted on a nitrocellulose coated micro array printer slide and probed with the FITC-labeled target peptide. The fluorescence intensities at each spot were quantified with an Axon Imager. Protein fractions with the highest intensity were trypsinized, and proteomic analysis was performed using a Finnigan LTQ linear ion trap mass spectrometer. The protein identities were confirmed using an International Protein Index (IPI) database search, utilizing the SEQUEST program and with open source Xtandem and peptide and protein prophet software. […] See Table 1 below for list of targets identified. All identified proteins were either an exact match or >0.99.

[6] = test system: 0E-21 (squamous) cells; test: Target peptide binding to cell surface targets; type: cell-based; details: 100 μM
[7] = test system: Q-hTERT (intestinal metaplasia) cells; test: Target peptide binding to cell surface targets; type: cell-based; details: 100 μM

Question: Which “inhibition of SNFYMPL-phage binding to OE33 cells” value (from here on “inhibition”) [1] does the source give for “NLMPYFS-GGGSK (NLMPYFSGGGSK) [scrambled control peptide, reference compound]” here?
Answer: no inhibition ability

Question: And the “inhibition” value ([1]; listed as scrambled peptide ‘NLMPYFS’)?
Answer: did not inhibit

Question: How did the “inhibition” value [1] turn out when SNFYMPL-GGGSK was run?
Answer: could obviously inhibit

Question: What about the “inhibition” value ([1]; listed as ‘SNFYMPL’ peptide) of the same substance?
Answer: significantly inhibited the SNFYMPL-phage binding to the OE33 cells in a concentration dependent manner

Question: Which “intensity associated with binding to the cell surface” value ([2]; FIG. 3 legend) does the source give for “SNFYMPL-GGGSK-FITC (SNFYMPLGGGSK-{FITC′}) [FITC conjugated at the C-terminus of SNFYMPL via the GGGSK linker]” here?
Answer: 69±18

Question: And the intensity associated with binding to the cell surface ([2]; NIH Image J)?
Answer: 69 mean grey value

Question: And the “cells with peptide bound to the plasma membrane” value ([2]; OE33 cells, FITC-labeled peptide, 10 minutes)?
Answer: > 90%

Question: And the “intensity associated with binding to the cell surface” value ([3]; FIG. 3 legend)?
Answer: 25.7±2.5

Question: And the intensity associated with binding to the cell surface ([3]; NIH Image J)?
Answer: 25.7 mean grey value

Question: What about the “mean fluorescence intensity value” ([4]; dysplasia (n=69 sites)) of the same substance?
Answer: 56.5 gray levels

Question: And the “mean fluorescence intensity value” ([4]; gastric mucosa (n=35 sites))?
Answer: 24.1 gray levels

Question: What about the “mean fluorescence intensity value” ([4]; intestinal metaplasia (n=66 sites)) of the same substance?
Answer: 42.1 gray levels

Question: And the “binding to Barrett's dysplasia” value ([4]; mucosal surface areas on the centimeter scale)?
Answer: Selective binding

Question: What about the “mean fluorescence intensity value” ([4]; squamous (n=107 sites)) of the same substance?
Answer: 27.1 gray levels

Question: What does the source list for ASYNYDA?
Answer: binding to cell surface targets [5]: preferential binding; binding to cell surface targets [6]: lack of binding; binding to cell surface targets [7]: lack of binding

Source: US20100310459A1, “Targeted Detection of Dysplasia In Barrett's Esophagus With A Novel Fluorescence-Labeled Polypeptide” (THE REGENTS OF THE UNIVERSITY OF MICHIGAN, priority 2009, published 2010)
